Literature values in US20200147064A1, “Reduction of Pro-Inflammatory HDL Using a Leukotriene Inhibitor” (Autoimmune Pharma LLC, priority 2017, published 2020).

Tested on: leukotriene production
Details: statement in words, cited from Stock, N S et al., J Med Chem. 2011

CCOc1ccc(-c2ccc(Cn3c(CC(C)(C)C(=O)O)c(SC(C)(C)C)c4cc(OCc5ccc(C)cn5)ccc43)cc2)cn1 [Compound 2-107, 3-[3-tert-butylsulfanyl-1-[4-(6-ethoxy-pyridin-3-yl)-benzyl]-5-(5-methyl-pyridin-2-ylmethoxy)-1H-indol-2-yl]-2,2-dimethyl-propionic acid]
inhibitor of leukotriene production in vivo: potent inhibitor of leukotriene production in vivo
